Legend:
[1] = target: T1, TRET1 (Polypedilum vanderplanki, UniProt A5LGM7); format: cell-based
T1 construct: ORF of either Tret1, DmTret1, AmTret1, AgTret1 or BmTret1 cDNA was amplified with PCR; expressed in transfected cells; host or cells: Xenopus laevis oocytes injected with cRNA
T1 sequence (A5LGM7 1-504): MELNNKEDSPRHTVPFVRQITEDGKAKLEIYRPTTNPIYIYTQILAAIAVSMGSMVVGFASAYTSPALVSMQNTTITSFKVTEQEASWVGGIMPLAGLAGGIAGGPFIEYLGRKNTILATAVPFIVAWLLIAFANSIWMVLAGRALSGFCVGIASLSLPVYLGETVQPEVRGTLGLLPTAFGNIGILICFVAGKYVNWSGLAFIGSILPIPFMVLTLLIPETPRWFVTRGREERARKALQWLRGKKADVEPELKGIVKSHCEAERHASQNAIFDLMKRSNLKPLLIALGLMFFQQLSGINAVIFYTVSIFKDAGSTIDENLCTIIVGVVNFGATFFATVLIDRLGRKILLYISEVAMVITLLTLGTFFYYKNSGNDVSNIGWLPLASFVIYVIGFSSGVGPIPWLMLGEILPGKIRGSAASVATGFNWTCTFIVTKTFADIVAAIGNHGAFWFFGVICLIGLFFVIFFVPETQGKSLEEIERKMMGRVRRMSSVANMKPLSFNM
Text: (§1) The capped RNA (cRNA) expression vector pTRET1-XbG-ev1 series was constructed as follows: ORF of either Tret1, DmTret1, AmTret1, AgTret1 or BmTret1 cDNA was amplified with PCR using specific primers containing Bgl II site at the 5′-end on each primer, respectively. The PCR products were digested with the restriction enzymes, and cloned into the site of Bgl II in pXbG-ev1 (Preston, G. M., et al. (1992) Science 256, 385-387). ORF of hGLUT1 cDNA was obtained by digestion of pSPMM1 with BamH I, and then subcloned into the site of Bgl II in pXbG-2. Template DNAs for cRNA synthesis were amplified from the corresponding cRNA expression vectors with a high fidelity DNA polymerase, KOD—Plus—, (TOYOBO). The cRNAs were synthesized with mMESSAGE mMACHINE T7 Kit (Ambion), and then purified with RNeasy MiniElute Cleanup kit (Qiagen).
Stage V or VI oocytes were extirpated from X. laevis females, and digested ovarian lobes with 0.2% (w/v) collagenase, type II (Sigma-Aldrich) in Ca^2+-free modified Barth's saline (MBS; 88.0 mM NaCl, 1.0 mM KCl, 2.4 mM NaHCO3, 15.0 mM Tris-Cl, 0.82 mM MgSO4, […] penicillin and streptomycin, pH7.6) at 15° C. for 3 h. The oocytes were microinjected with 40 nl of either 1 ng/nl of the TRET1::AcGFP1 or AcGFP1 cRNA, or nuclease-free water (Invitrogen) as a negative control. In order to express TRET1, the oocytes were incubated in MBS (containing 0.41 mM CaCl2) for 3-4 days after injection at 15° C. Fluorescence images of the oocytes injected with the cRNA were observed and analyzed with a fluorescence microscope BZ-8000 (KEYENCE).
All uptake assays for zero-trans trehalose and/or other sugars were performed using Xenopus oocytes expressing TRET1 at 15° C. in MBS containing appropriate concentrations of sugars. Sugar concentrations were determined using HPLC (Watanabe, M., et al. (2002) J Exp Biol 205, 2799-2802). All assays were carried out in triplicate.
Xenopus oocytes expressing either TRET1 or hGLUT1 were incubated in 105 mM of various sugars for 3 h. Tre: trehalose; Mal: maltose; Suc: sucrose; Lac: lactose; MAG: methyl-a-glucopyranoside; and 2-DOG: 2-deoxy-glucose (FIG. 3B).
In General, transporters contain two sub-classes: facilitated transporters and secondary active transporters. Activities of secondary active transporters are dependent on the electrochemical membrane potential resulting from the distribution of ions such as H^+. For example, proton-dependent MAL11/AGT1 can act only under acidic extracellular conditions (Stambuk, B. U., et al. (1996) Eur J Biochem 237, 876-881). On the other hand, facilitated transporters function independently of the electrochemical membrane potential. Xenopus oocytes expressing TRET1 were incubated in 105 mM trehalose at pH 4.2 and 7.6 for 3 h.
Xenopus oocytes expressing TRET1 were incubated in 105 mM trehalose with either control buffer (Mock; 0.1% acetone), or buffer containing various concentrations of nigericin (Na^+, K^+-ionophore), valinomycin (K^+-ionophore) or CCCP (H^+-ionophore, uncoupler) for 3 h.
In general, facilitated transporters enable their substrates to flow across membranes down concentration gradients. Xenopus oocytes expressing TRET1 were first incubated in 105 mM trehalose for 3 h, and then transferred into trehalose-free buffer and trehalose content was examined over time.
Xenopus oocytes expressing TRET1 were incubated in various concentrations of trehalose for 15 min. Uptake data were fitted to the Michaelis-Menten and Eadie-Hofstee (inset of FIG. 9) equations.

[2] = target: T2, DmTRET1 (Drosophila melanogaster, UniProt A1Z8N1); experiment: Trehalose uptake in Xenopus oocytes expressing DmTRET1; format: cell-based; settings: 105 mM of trehalose, 3 h
T2 construct: ORF of either Tret1, DmTret1, AmTret1, AgTret1 or BmTret1 cDNA was amplified with PCR; expressed in transfected cells; host or cells: Xenopus laevis oocytes injected with cRNA
T2 sequence (A1Z8N1 352-857): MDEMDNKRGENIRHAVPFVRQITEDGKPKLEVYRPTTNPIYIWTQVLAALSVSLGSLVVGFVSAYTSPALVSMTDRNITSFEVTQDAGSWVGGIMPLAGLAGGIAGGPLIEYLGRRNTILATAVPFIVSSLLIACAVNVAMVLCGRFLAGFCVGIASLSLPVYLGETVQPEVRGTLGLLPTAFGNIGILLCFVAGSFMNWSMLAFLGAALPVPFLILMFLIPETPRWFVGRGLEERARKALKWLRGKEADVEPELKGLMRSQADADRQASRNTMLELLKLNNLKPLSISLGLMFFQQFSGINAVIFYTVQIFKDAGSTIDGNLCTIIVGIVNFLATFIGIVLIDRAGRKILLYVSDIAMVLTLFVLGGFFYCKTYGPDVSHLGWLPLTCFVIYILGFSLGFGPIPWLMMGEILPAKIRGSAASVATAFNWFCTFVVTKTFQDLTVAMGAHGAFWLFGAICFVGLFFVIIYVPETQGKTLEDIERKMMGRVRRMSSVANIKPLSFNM
Text: as §1
All uptake assays for zero-trans trehalose and/or other sugars were performed using Xenopus oocytes expressing TRET1 at 15° C. in MBS containing appropriate concentrations of sugars. Sugar concentrations were determined using HPLC (Watanabe, M., et al. (2002) J Exp Biol 205, 2799-2802). All assays were carried out in triplicate. […] (data not shown).
Likewise, whether these Tret1-orthologs have trehalose transport activity was examined using the Xenopus oocyte expression system incubated in 105 mM of trehalose for 3 h.

## OC[C@H]1O[C@H](O[C@H]2O[C@H](CO)[C@@H](O)[C@H](O)[C@H]2O)[C@H](O)[C@@H](O)[C@@H]1O [trehalose]
[1]; 105 mM trehalose
  time course of trehalose uptake into oocytes expressing TRET1: increased linearly for at least 6 h
[1]; 105 mM trehalose 3 h, then trehalose-free buffer
  direction of trehalose transport after reversal of concentration gradient: shifted from an inward to outward direction
[1]; 105 mM trehalose, pH 4.2 and 7.6, 3 h
  pH-dependency of TRET1 trehalose transport: acted over a wide extracellular pH range
[1]; Xenopus oocytes expressing TRET1
  Vmax of TRET1 for trehalose: 7.84±0.77 nmol/15 min/oocyte
[2]
  trehalose transport activity: showed trehalose transport activity

Source: US7892789B2, “Method of increasing cell permeability to trehalose by recombinantly producing a trehalose transporter” (priority 2007, dated 2011)
